Consider two compounds from US6093730A, “Substituted isoquinoline-3-carboxamides, their preparation and their use as pharmaceuticals” (Hoechst Marion Roussel Deutschland GmbH, priority 1997, dated 2000).

Each structure is given as a SMILES string.

One series has as its system liver. The note with it: rats; Franklin 1997; cited from earlier work.
The next series has as its system collagen biosynthesis. The note with it: Franklin et al.; cited from earlier work.
The target of a further series is T1, prolyl-4-hydroxylase (Gallus gallus, UniProt P16924).
T1 sequence (P16924 1-516): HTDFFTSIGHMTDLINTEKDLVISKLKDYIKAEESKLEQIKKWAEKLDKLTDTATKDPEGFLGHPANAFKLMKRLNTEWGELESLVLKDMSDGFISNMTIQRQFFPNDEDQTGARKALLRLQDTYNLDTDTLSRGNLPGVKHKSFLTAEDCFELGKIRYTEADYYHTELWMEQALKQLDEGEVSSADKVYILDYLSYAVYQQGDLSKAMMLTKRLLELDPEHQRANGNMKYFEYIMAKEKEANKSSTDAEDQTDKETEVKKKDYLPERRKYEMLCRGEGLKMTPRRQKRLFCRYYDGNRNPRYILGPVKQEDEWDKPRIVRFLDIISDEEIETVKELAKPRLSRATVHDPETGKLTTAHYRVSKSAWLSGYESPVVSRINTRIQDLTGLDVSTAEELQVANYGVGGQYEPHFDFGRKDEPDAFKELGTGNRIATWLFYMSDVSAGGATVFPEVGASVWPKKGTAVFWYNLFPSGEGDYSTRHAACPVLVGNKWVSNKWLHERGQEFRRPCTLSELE
T1 sequence (P09102 23-515 partner): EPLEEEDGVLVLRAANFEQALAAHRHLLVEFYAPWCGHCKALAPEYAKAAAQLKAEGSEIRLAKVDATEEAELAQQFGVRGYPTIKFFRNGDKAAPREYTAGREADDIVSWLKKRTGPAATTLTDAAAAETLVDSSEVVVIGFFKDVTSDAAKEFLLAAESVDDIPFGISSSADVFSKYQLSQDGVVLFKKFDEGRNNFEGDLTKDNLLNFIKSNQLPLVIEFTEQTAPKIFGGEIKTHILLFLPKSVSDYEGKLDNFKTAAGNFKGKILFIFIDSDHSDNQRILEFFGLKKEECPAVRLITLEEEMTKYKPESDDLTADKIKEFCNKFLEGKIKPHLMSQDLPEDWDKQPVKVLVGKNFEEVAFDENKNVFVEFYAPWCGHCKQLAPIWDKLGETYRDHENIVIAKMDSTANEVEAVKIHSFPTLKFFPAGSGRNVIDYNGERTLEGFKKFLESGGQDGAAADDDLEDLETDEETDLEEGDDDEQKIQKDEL
In words: Inhibition of prolyl-4-hydroxylase (Table I). The series is classed as biochemical. The procedure:
The inhibition of this enzyme was determined as described by Kaule and Gunzler, ANAL. BIOCHEM.

For the next series, the system named is liver steatosis. As to the kind of experiment: Liver steatosis on treatment of male rats. The class given is in vivo, rat. The note with it: up to six weeks, male rats (Fischer F344, Sprague Dawley, Wistar), 2×25 mg/kg i.p/day, in water/NaHCO3.
The test system of the next series is hydroxyproline formation. As to the kind of experiment: Carbon tetrachloride-induced liver fibrosis model in rats, inhibition of hydroxyproline formation. The class given is in vivo, rat. The note with it: two weeks with CCl4. The procedure:
The antifibrotic action was determined in the model of carbon tetrachloride-induced liver fibrosis. For this, rats were treated twice weekly with CCl4 (1 ml/kg) dissolved in olive oil. The test substance was administered daily, if appropriate even twice daily, orally or intraperitoneally dissolved in a suitable compatible solvent. The extent of the liver fibrosis was determined histologically and the proportion of collagen in the liver was analyzed by hydroxyproline determination as described in Kivirikko et al., ANAL. BIOCHEM. […] The fibrogenesis activity was determined by radioimmunological determination of collagen fragments and procollagen peptides in the serum.
The measurement of the inhibition of hydroxyproline formation by the test substances was based on this level.
Here the experimental animals were treated for two weeks only with carbon tetrachloride, then for the next two weeks with carbon tetrachloride and test substance. The test substances were administered intraperitoneally twice per day in the total amount indicated below in Table II,

For the compound `O=C(O)CNC(=O)c1ncc2cc(Br)ccc2c1O` [N-((7-bromo-4-hydroxy-isoquinolin-3-yl)carbonyl)glycine], the “toxic action on the liver” value in the series with liver is given as “toxic action on the liver (steatosis)”. Moreover, the “in-vivo activity on collagen biosynthesis” value with collagen biosynthesis is given as “in-vivo inhibition of collagen biosynthesis”.

Usually IC50 stands for the midpoint of a concentration-inhibition curve. Low values mean greater potency in that assay, high ones weaker potency in that assay. Take `O=C(O)CNC(=O)c1nc(Cl)c2ccccc2c1O` [Example 9, N-((1-Chloro-4-hydroxyisoquinolin-3-yl)carbonyl)glycine]: the IC50 at prolyl-4-hydroxylase turned out to be 2.3 µM. Moreover, the liver steatosis entry in the series on liver steatosis was “It was not possible to demonstrate any liver steatosis”. Also, the “Change in hydroxyproline formation” value in the series with hydroxyproline formation (20 mg/kg (total), intraperitoneal twice per day) was -67%; in the series with hydroxyproline formation (40 mg/kg (total), intraperitoneal twice per day), -65%; in the series on hydroxyproline formation (100 mg/kg (total), intraperitoneal twice per day), -58%; in the series on hydroxyproline formation (100 mg/kg, oral administration), -71%.
